ChEMBL document CHEMBL4680337, “Synthetic 1,4-Naphthoquinones inhibit P2X7 receptors in murine neuroblastoma cells” (Bioorg Med Chem, 2021)
Blank lines part the entries; values can stand above or below the molecule they belong to. The source made the active and inactive calls. The calls are words filed in the database; no cut-off is given here.

Legend:
Format in all cases: cell-based
[1] = molecular target: T1, P2X purinoceptor 7 (Mus musculus) (UniProt Q9Z1M0); experiment: Antagonist activity at P2X7R in mouse N2a cells assessed as inhibition of ATP-induced NO production at 50 uM incubated for 1 hr by using DAF-FM probe based fluorescence assay
T1 sequence (whole entry): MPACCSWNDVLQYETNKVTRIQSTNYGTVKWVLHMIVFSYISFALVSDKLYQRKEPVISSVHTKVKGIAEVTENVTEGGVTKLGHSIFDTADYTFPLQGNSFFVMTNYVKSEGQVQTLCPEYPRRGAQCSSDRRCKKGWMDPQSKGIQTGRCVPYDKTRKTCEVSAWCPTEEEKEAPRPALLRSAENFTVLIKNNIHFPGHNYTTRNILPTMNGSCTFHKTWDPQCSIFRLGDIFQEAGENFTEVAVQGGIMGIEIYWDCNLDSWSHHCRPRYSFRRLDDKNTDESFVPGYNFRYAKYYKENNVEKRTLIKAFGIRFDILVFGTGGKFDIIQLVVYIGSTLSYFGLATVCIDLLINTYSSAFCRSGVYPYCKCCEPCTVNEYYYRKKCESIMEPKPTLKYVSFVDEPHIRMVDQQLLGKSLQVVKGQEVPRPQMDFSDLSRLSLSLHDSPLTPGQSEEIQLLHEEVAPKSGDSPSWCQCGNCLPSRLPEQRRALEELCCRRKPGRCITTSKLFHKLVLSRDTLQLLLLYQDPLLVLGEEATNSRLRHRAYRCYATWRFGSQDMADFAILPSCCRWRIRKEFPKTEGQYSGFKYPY

[2] = molecular target: T1, P2X purinoceptor 7 (Mus musculus); experiment: Antagonist activity at P2X7R in mouse N2a cells assessed as inhibition of ATP-induced ROS production at 50 uM incubated for 1 hr by using H2DCF-DA probe based fluorescence assay
[3] = molecular target: T1, P2X purinoceptor 7 (Mus musculus); experiment: Antagonist activity at P2X7R in mouse N2a cells assessed as reduction in ATP-induced calcium influx at 50 uM incubated for 1 hr by Fura-2AM dye based spectrofluorometry
[4] = molecular target: T1, P2X purinoceptor 7 (Mus musculus); experiment: Antagonist activity at P2X7R in mouse N2a cells assessed as reduction in ATP-induced YO-PRO-1 uptake by cells at 10 uM incubated for 1 hr by fluorescence based assay relative to control
[5] = molecular target: T1, P2X purinoceptor 7 (Mus musculus); experiment: Antagonist activity at P2X7R in mouse N2a cells assessed as inhibition of ATP-induced ROS production at 0.1 uM incubated for 1 hr by using H2DCF-DA probe based fluorescence assay relative to control
[6] = molecular target: T1, P2X purinoceptor 7 (Mus musculus); experiment: Antagonist activity at P2X7R in mouse N2a cells assessed as reduction in ATP-induced YO-PRO-1 uptake by cells incubated for 1 hr by fluorescence based assay; conditions: dose 0.1-10 µM
[7] = molecular target: T1, P2X purinoceptor 7 (Mus musculus); experiment: Antagonist activity at P2X7R in mouse N2a cells assessed as reduction in ATP-induced EtBr uptake by cells at 0.1 to 10 uM incubated for 1 hr by fluorescence based assay; conditions: dose 0.1-10 µM
[8] = molecular target: T1, P2X purinoceptor 7 (Mus musculus); experiment: Antagonist activity at P2X7R in mouse N2a cells assessed as cytoprotective activity against ATP-induced cell death by measuring increase in cell viability at 1 uM incubated for 1 hr followed by ATP addition and measured after 48 hrs by MTT assay relative to control; conditions: time 49.0 hrs
[9] = molecular target: T1, P2X purinoceptor 7 (Mus musculus); experiment: Antagonist activity at P2X7R in mouse N2a cells assessed as reduction in ATP-induced EtBr uptake by cells incubated for 1 hr by fluorescence based assay relative to control; conditions: concentration not given here
[10] = molecular target: T1, P2X purinoceptor 7 (Mus musculus); experiment: Antagonist activity at P2X7R in mouse N2a cells assessed as reduction in ATP-induced YO-PRO-1 uptake by cells at 5 uM incubated for 1 hr by fluorescence imaging based laser scanning microscopic analysis
[11] = molecular target: T1, P2X purinoceptor 7 (Mus musculus); experiment: Antagonist activity at P2X7R in mouse N2a cells assessed as inhibition of ATP-induced NO production by measuring NO level at 10 uM incubated for 1 hr by using DAF-FM probe based fluorescence assay relative to control; set-up: scale not given: the % may be the effect or the level left
[12] = molecular target: T1, P2X purinoceptor 7 (Mus musculus); experiment: Antagonist activity at P2X7R in mouse N2a cells assessed as reduction in ATP-induced calcium influx at 5 uM incubated for 1 hr by Fura-2AM dye based spectrofluorometry relative to control
[13] = test system: N2a; experiment: Cytotoxicity against mouse N2a cells assessed as reduction in cell viability incubated for 24 hrs by MTT assay
[14] = molecular target: T1, P2X purinoceptor 7 (Mus musculus); experiment: Antagonist activity at P2X7R in mouse N2a cells assessed as cytoprotective activity against ATP-induced cell death by measuring increase in cell viability at 0.1 to 5 uM incubated for 1 hr followed by ATP addition and measured after 48 hrs by MTT assay; conditions: dose 0.1-5 µM, time 49.0 hrs
[15] = molecular target: T1, P2X purinoceptor 7 (Mus musculus); experiment: Antagonist activity at P2X7R in mouse N2a cells assessed as inhibition of ATP-induced ROS production at 1 uM incubated for 1 hr by using H2DCF-DA probe based fluorescence assay relative to control
[16] = molecular target: T1, P2X purinoceptor 7 (Mus musculus); experiment: Antagonist activity at P2X7R in mouse N2a cells assessed as inhibition of ATP-induced NO production by measuring NO level at 1 uM incubated for 1 hr by using DAF-FM probe based fluorescence assay relative to control; set-up: scale not given: the % may be the effect or the level left
[17] = molecular target: T1, P2X purinoceptor 7 (Mus musculus); experiment: Antagonist activity at P2X7R in mouse N2a cells assessed as reduction in ATP-induced calcium influx at 5 uM incubated for 1 hr by Fluo-3AM dye based laser scanning microscopy
[18] = molecular target: T1, P2X purinoceptor 7 (Mus musculus); experiment: Antagonist activity at P2X7R in mouse N2a cells assessed as inhibition of ATP-induced NO production at 0.1 to 10 uM incubated for 1 hr by using DAF-FM probe based fluorescence assay; conditions: dose 0.1-10 µM
[19] = molecular target: T1, P2X purinoceptor 7 (Mus musculus); experiment: Antagonist activity at P2X7R in mouse N2a cells assessed as reduction in ATP-induced calcium influx at 10 uM incubated for 1 hr by Fura-2AM dye based spectrofluorometry relative to control
[20] = molecular target: T1, P2X purinoceptor 7 (Mus musculus); experiment: Antagonist activity at P2X7R in mouse N2a cells assessed as inhibition of ATP-induced NO production at 10 uM incubated for 1 hr by using DAF-FM probe based fluorescence assay
[21] = molecular target: T1, P2X purinoceptor 7 (Mus musculus); experiment: Antagonist activity at P2X7R in mouse N2a cells assessed as inhibition of ATP-induced ROS production at 10 uM incubated for 1 hr by using H2DCF-DA probe based fluorescence assay
[22] = molecular target: T1, P2X purinoceptor 7 (Mus musculus); experiment: Antagonist activity at P2X7R in mouse N2a cells assessed as cytoprotective activity against ATP-induced cell death by measuring increase in cell viability at 10 uM incubated for 1 hr followed by ATP addition and measured after 48 hrs by MTT assay relative to control; conditions: time 49.0 hrs

inhibition [1]: Active
inhibition [2]: Active
inhibition [3]: Active
SMILES: Cc1cc(/N=N/c2ccc(S(=O)(=O)O)cc2S(=O)(=O)O)c(COP(=O)(O)O)c(C=O)c1O

inhibition [4]: 46.2%
inhibition [5]: 66.3%
inhibition [6]: Dose-dependent effect
inhibition [7]: Active
inhibition [9]: 42.6%
inhibition [10]: Active
Activity [11]: 44.5%
inhibition [12]: 32.7%
SMILES: O=C1C2=C(S[C@H]3O[C@@H](CO)[C@H](O)[C@@H](O)[C@@H]3O2)C(=O)c2ccccc21
Activity [8]: 19.6%
EC50 [13]: 29.5 µM

inhibition [4]: 20.7%
inhibition [15]: 58.4%
inhibition [9]: 18.3%
Activity [16]: 48.5%
inhibition [12]: 36%
inhibition [17]: Active
SMILES: Cc1c(C)c(O)c2c(c1O)C(=O)C1=C(S[C@H]3O[C@@H](CO)[C@H](O)[C@@H](O)[C@@H]3O1)C2=O
Activity [14]: inactive
EC50 [13]: 22.6 µM

inhibition [12]: 90%
SMILES: Clc1cccc(-c2nnnn2Cc2cccnc2)c1Cl

inhibition [4]: 54.1%
inhibition [6]: Dose-dependent effect
inhibition [15]: 70.9%
inhibition [9]: 25.2%
Activity [16]: 56.8%
inhibition [12]: inactive
SMILES: COC1=C(S[C@@H]2O[C@H](COC(C)=O)[C@@H](OC(C)=O)[C@H](OC(C)=O)[C@H]2OC(C)=O)C(=O)c2c(O)c(C)c(C)c(O)c2C1=O
Activity [14]: inactive
EC50 [13]: 17.8 µM

inhibition [4]: 60.9%
inhibition [5]: 69.8%
inhibition [6]: Dose-dependent effect
inhibition [18]: inactive
inhibition [9]: 34.8%
inhibition [12]: 15.1%
SMILES: COC1=C(S[C@@H]2O[C@H](CO)[C@@H](O)[C@H](O)[C@H]2O)C(=O)c2ccccc2C1=O
Activity [8]: 22.2%
EC50 [13]: 75.2 µM

inhibition [4]: Active
inhibition [19]: 46%
inhibition [20]: Active
inhibition [21]: Active
SMILES: CCOc1ccc(Nc2ccc(/C(=C3C=C/C(=[N+](/CC)Cc4cccc(S(=O)(=O)[O-])c4)C=C/3C)c3ccc(N(CC)Cc4cccc(S(=O)(=O)O)c4)cc3C)cc2)cc1
Activity [22]: 14.6%
